Earlier results as cited in patent publication US20090232888A1, “SUSTAINED DELIVERY OF ANTIBIOTICS” (ORIENT PHARMA, priority 2008, published 2009).

Legend:
[1] = solution, 4° C., shelf-life based on 90% residual potency

Q: Which “time vancomycin solutions were stable (shelf-life of 90% residual potency)” value [1] does the source give for `CN[C@H](CC(C)C)C(=O)N[C@H]1C(=O)N[C@@H](CC(N)=O)C(=O)N[C@H]2C(=O)N[C@H]3C(=O)N[C@H](C(=O)N[C@H](C(=O)O)c4cc(O)cc(O)c4-c4cc3ccc4O)[C@H](O)c3ccc(c(Cl)c3)Oc3cc2cc(c3O[C@@H]2O[C@H](CO)[C@@H](O)[C@H](O)[C@H]2O[C@H]2C[C@](C)(N)[C@H](O)[C@H](C)O2)Oc2ccc(cc2Cl)[C@H]1O` [vancomycin] here?
A: at least 58 days

Q: And the oral bioavailability?
A: negligible
